US20250108038A1 (priority 2023, published 2025)
“And” between values parts separate entries of the source, which are not always exact repeats. Equal values may be shown once. “Also recorded” adds a separate entry of the source.

What was measured:
OAT3 = molecular target: T1, OAT3 (Homo sapiens, UniProt Q8TCC7); assay: Uptake transporter inhibition assay, OAT3 (estrone-3-sulfate)
T1 sequence (Q8TCC7 1-542): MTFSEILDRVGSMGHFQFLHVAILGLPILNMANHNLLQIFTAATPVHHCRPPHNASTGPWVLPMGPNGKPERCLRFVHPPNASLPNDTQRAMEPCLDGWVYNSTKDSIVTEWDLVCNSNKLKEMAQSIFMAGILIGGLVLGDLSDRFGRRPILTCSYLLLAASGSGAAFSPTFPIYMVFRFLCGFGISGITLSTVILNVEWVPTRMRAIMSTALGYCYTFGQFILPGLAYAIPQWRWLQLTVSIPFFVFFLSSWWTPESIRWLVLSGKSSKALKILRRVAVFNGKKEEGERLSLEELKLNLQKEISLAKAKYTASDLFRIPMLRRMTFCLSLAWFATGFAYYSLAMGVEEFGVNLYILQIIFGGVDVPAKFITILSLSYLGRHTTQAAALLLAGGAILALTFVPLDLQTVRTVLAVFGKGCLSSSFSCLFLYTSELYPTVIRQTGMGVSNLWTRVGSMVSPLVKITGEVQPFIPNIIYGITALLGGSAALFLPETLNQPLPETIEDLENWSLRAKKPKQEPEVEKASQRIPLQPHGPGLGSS
Protocol: Uptake experiments were performed using HEK293 cells stably expressing the respective uptake transporters. The assays were conducted according to the actual SOLVO uptake transporter assay protocols (PR-ASY-UPT-General Protocol for Uptake Transporter Inhibition Assays).
Cells were cultured at 37° C. in a humidified atmosphere containing 5% CO2 and were plated onto standard 96-well tissue culture plates.
Before the experiment, the medium was removed, and the cells were washed twice with 100 μL of pre-warmed (37° C.) assay buffer listed in Table 15. The cells were pre-incubated at 37° C. for 30 minutes in assay buffer containing the test article at appropriate concentrations (Table 16), appropriate solvents for solvent controls and the reference inhibitor for reference inhibitor wells. After the pre-incubation step solutions were removed. Uptake experiments were performed at 37° C. in 50 μL of assay buffer containing the probe substrate and the test article or solvent and controls.
After the experiment, cells were washed twice with 100 μL of appropriate cold buffer and lysed with 150 μL scintillation cocktail. Radiolabeled probe substrate transport was determined by liquid scintillation counting.
Uptake of the probe substrate in control cells provided background activity values for all data points.

in vivo = conditions: for plasma concentration of Compound A: Compound A single PO 5.102 mg/kg
Protocol: Dose solutions were prepared freshly on each day of studies prior to dosing.
The animals were weighed immediately prior to dosing and the dose volume was calculated individually based the obtained body weight and the nominal dose volume. […] The nominal dose volume was 10 mL/kg in both studies.
Cage side observation was performed before and after dosing as well as at each scheduled sample collection time. The observation included appearance, posture, behavior, morbidity and mortality. Abnormal findings, if any, are required to be recorded in the study record and communicated with study director, veterinarian, and Supernus if necessary.
Approximately 40 μL blood was collected at each scheduled time point from saphenous veins. The actual sample collection time was within 1 min. of the nominal time for collections prior to or at 1 hour, and within 5% of the nominal values for collections post 1 hour.
The blood samples were placed in pre-labeled micro-centrifuge tubes containing K2EDTA as anticoagulant and kept on ice before they were processed to plasma within 30 minutes of collection by centrifugation at 4° C., 3000 g for 5 minutes. The plasma samples were stored at −70±10° C. until LC-MS/MS analysis.
Plasma concentrations below the LLOQ prior to Tmax were set to zero, and those after Tmax were excluded from PK calculation. The nominal dose and the nominal sample collection time were used for the calculation. The values of plasma concentrations and PK parameters are reported to three significant figures. The average values of each treatment group are presented as mean±SD.

[1] = Metabolic stability in human intestinal homogenate; format: in vitro ADME
Protocol: The intestinal homogenate mixture solution was added to 96-well plates ([…]) in duplicate. […] Reaction was initiated by adding cofactor solution at 10 μL/well.
The intrinsic clearances were calculated using the following equations: […]

[2] = male, CD-1, mouse, in vivo, po, 5.102 mg/kg
[3] = 1 μM, 0.5 mg/mL homogenate, 1 mM NADPH
[4] = 1 μM, NCF60 (60 min, no cofactors)

SMILES: OC1(c2ccc(Cl)cc2)c2ccccc2C2=NCCN21 (stereo not shown) [Compound A, 5-(4-chlorophenyl)-2,3-dihydroimidazo[1,2-b]isoindol-5-ol, reference compound]
- Relative transporter specific accumulation (OAT3; 3.00 μM nominal): 97.60 ± 4.33 % of control
- Transporter specific accumulation (OAT3; 3.00 μM nominal): 3,883.00 ± 158.50 cpm
- Relative transporter specific accumulation (OAT3; 30.00 μM nominal): 89.65 ± 3.21 % of control
- Transporter specific accumulation (OAT3; 30.00 μM nominal): 3,566.67 ± 111.53 cpm
- Maximum % inhibition (OAT3; OAT3, HEK293 cells, E3S (1 μM), NIO: no inhibition observed): NIO
- inhibition at 3 μM (OAT3; human, Relative inhibition, 3.00 μM nominal): 2%
- inhibition at 30 μM (OAT3; human, Relative inhibition, 30.00 μM nominal): 10%
- maximum inhibition of OAT3-mediated E3S accumulation (OAT3; up to 100 μM (Compound A up to 30 μM)): did not inhibit; also recorded: not an in vitro inhibitor
- plasma concentration of Compound A (in vivo; 0.500 h, individual mice, 5.102 mg/kg): 117 ng/mL and 172 ng/mL and 141 ng/mL
- plasma concentration of Compound A (in vivo; 0.500 h, mean): 143 ng/mL
- plasma concentration of Compound A (in vivo; 1.00 h, individual mice, 5.102 mg/kg): 77.8 ng/mL and 71.7 ng/mL and 102 ng/mL
- plasma concentration of Compound A (in vivo; 1.00 h, mean): 83.8 ng/mL
- plasma concentration of Compound A (in vivo; 2.00 h, individual mice, 5.102 mg/kg): 32.3 ng/mL and 25.2 ng/mL and 24.4 ng/mL
- plasma concentration of Compound A (in vivo; 2.00 h, mean): 27.3 ng/mL
- plasma concentration of Compound A (in vivo; 4.00 h, individual mice, 5.102 mg/kg): 9.42 ng/mL and 4.31 ng/mL and 8.99 ng/mL
- plasma concentration of Compound A (in vivo; 4.00 h, mean): 7.57 ng/mL
- plasma concentration of Compound A (in vivo; 8.00 h, individual mice): BQL
- plasma concentration of Compound A (in vivo; 24.0 h, individual mice): BQL
- Tmax of Compound A (in vivo; male, CD-1, mouse, in vivo, ip, 4.061 mg/kg): 30 min
- AUC(0-t) (in vivo; [2]): 179 ± 6.91 ng·h/mL
- Cmax (in vivo; [2]): 143 ± 27.6 ng/mL
- MRT last (in vivo; [2]): 70.8 ± 6.78 min
- Tmax (in vivo; [2]): 30 min
- half-life (in vivo; [2]): 53.1 ± 7.8 min
- Tmax of Compound A (in vivo; male, CD-1, mouse, in vivo, po, 6.645 mg/kg): 15 min
- Clinical observation (tolerability) (in vivo; mouse, in vivo): well tolerated

SMILES: COCCOC1(c2ccc(Cl)cc2)c2ccccc2C2=NCCN21 (stereo not shown) [Compound I-4]
- Compound A formed (Aa/Ai) ([1]; 0 min): 0.46
- % Remaining ([1]; 1 μM, 0 min): 100%
- Aa/Ai Mean (n = 2) ([1]; 1 μM, 0 min): 1.34
- CLint(HIH) [1, 3]: 8.40 µL/min/mg
- T1/2 [1, 3]: 165 min
- % Remaining ([1]; 1 μM, 5 min): 97.6%
- Aa/Ai Mean (n = 2) ([1]; 1 μM, 5 min): 1.31
- % Remaining ([1]; 1 μM, 10 min): 87.3%
- Aa/Ai Mean (n = 2) ([1]; 1 μM, 10 min): 1.17
- % Remaining ([1]; 1 μM, 20 min): 88.0%
- Aa/Ai Mean (n = 2) ([1]; 1 μM, 20 min): 1.18
- % Remaining ([1]; 1 μM, 30 min): 87.4%
- Aa/Ai Mean (n = 2) ([1]; 1 μM, 30 min): 1.17
- % Remaining ([1]; 1 μM, 60 min): 75.8%
- Aa/Ai Mean (n = 2) ([1]; 1 μM, 60 min): 1.01
- % Remaining [1, 4]: 80.4%
- Aa/Ai Mean (n = 2) [1, 4]: 1.08
- Compound A formed (Aa/Ai) ([1]; 5 min): 0.54
- Compound A formed (Aa/Ai) ([1]; 10 min): 0.50
- Compound A formed (Aa/Ai) ([1]; 20 min): 0.51
- Compound A formed (Aa/Ai) ([1]; 30 min): 0.58
- Compound A formed (Aa/Ai) ([1]; 60 min): 0.50
- Compound A formed (Aa/Ai) ([1]; NCF60 (60 min, no cofactors)): 0.69
